By melting point is commonly meant the temperature, or range, at which the solid turns liquid.

Counter-ions that a name gives are not always drawn.

`FC(F)(F)c1nc2ccccc2c2c1nc(-c1ccccc1)n2CCN1CCNCC1` [Example 99, 2-Phenyl-1-[2-(1-piperazinyl)ethyl]-4-trifluoromethyl-1H-imidazo[4,5-c]-quinoline] came in with a melting point of 187 to 188 °C.

In turn, `FC(F)(F)c1nc2ccccc2c2c1nc(-c1cccs1)n2CCC1CCNCC1` (as salt: trifluoroacetate) (hydrate or solvate) [Example 66, 1-[2-(4-Piperidyl)ethyl]-2-(2-thienyl)-4-trifluoromethyl-1H-imidazo[4,5-c]-quinoline] yielded a melting point of 237 to 239 °C.

Consider `Cc1ccc2c(c1)nc(C(F)(F)F)c1nc(-c3ccccc3O)n(CCC3CCNCC3)c12` (as salt: trifluoroacetate), for which the melting point lay in the range of 161 to 162 °C.

As to `FC(F)(F)c1nc2ccccc2c2c1nc(-c1ccccc1)n2CCC1CCCNC1` (centres unmarked) (as salt: trifluoroacetate), the melting point is 229.5 to 231.5 °C (dec.).

For `c1c[nH]c(-c2nc3c(C4CC4)nc4ccccc4c3n2CCC2CCNCC2)c1` (hydrate or solvate) [Example 111, 4-Cyclopropyl-1-[2-(4-piperidyl)ethyl]-2-(2-pyrrolyl)-1H-imidazo[4,5-c]quinoline], the melting point lay in the range of 212 to 213.5 °C.

For the compound `O=C(CCl)NCCn1c(-c2ccccc2)nc2c(C(F)(F)F)nc3ccccc3c21` [Example 124, 2-chloro-N-[2-(2-phenyl-4-trifluoromethyl-1H-imidazo[4,5-c]quinolin-1-yl)ethyl]acetamide], the melting point is 230.5 to 231.5 °C.

Take `Cc1ccc2c(c1)nc(C(F)(F)F)c1nc(-c3ccc[nH]3)n(CCC3CCNCC3)c12` (as salt: trifluoroacetate) (hydrate or solvate) [Example 87, 7-Methyl-1-[2-(4-piperidyl)ethyl]-2-(2-pyrrolyl)-4-trifluoromethyl-1H-imidazo-[4,5-c]quinoline]: the melting point is 280 to 284 °C (dec.).

`Cc1cccc2c1nc(C(F)(F)F)c1nc(-c3nccs3)n(CCC3CCNCC3)c12` (as salt: trifluoroacetate) [Example 95, 6-Methyl-1-[2-(4-piperidyl)ethyl]-2-(2-thiazolyl)-4-trifluoromethyl-1H-imidazo-[4,5-c]quinoline]: the melting point is 243 to 245 °C (dec.).

Consider `Cc1ccc2c(c1)nc(C(F)(F)F)c1nc(-c3nccs3)n(CCC3CCNCC3)c12` (as salt: trifluoroacetate) (hydrate or solvate) [Example 88, 7-Methyl-1-[2-(4-piperidyl)ethyl]-2-(2-thiazolyl)-4-trifluoromethyl-1H-imidazo-[4,5-c]quinoline], for which the melting point was 239 to 241 °C (dec.).

As for `Cc1cccc2c1nc(C(F)(F)F)c1nc(-c3cccs3)n(CCC3CCNCC3)c12` (as salt: trifluoroacetate) (hydrate or solvate) [Example 98, 6-Methyl-1-[2-(4-piperidyl)ethyl]-2-(2-thienyl)-4-trifluoromethyl-1H-imidazo-[4,5-c]quinoline], the melting point was 227 to 229 °C (dec.).

Take `CN(C)CCn1c(-c2ccc[nH]2)nc2c(C(F)(F)F)nc3ccccc3c21` (as salt: fumarate) [Example 51, 1-(2-Dimethylaminoethyl)-2-(2-pyrrolyl)-4-trifluoromethyl-1H-imidazo[4,5-c]-quinoline]: the melting point is 228 to 230 °C (dec.).

Turning to `Fc1ccc2c(c1)nc(C(F)(F)F)c1nc(-c3cccs3)n(CCC3CCNCC3)c12` (as salt: trifluoroacetate) (hydrate or solvate) [Example 85, 7-Fluoro-1-[2-(4-piperidyl)ethyl]-2-(2-thienyl)-4-trifluoromethyl-1H-imidazo-[4,5-c]quinoline], the melting point is 234 to 235 °C (dec.).

Compound `CN(C)CC(=O)NCCn1c(-c2ccccc2)nc2c(C(F)(F)F)nc3ccccc3c21.O=C(O)/C=C/C(=O)O` [Example 128, 2-Dimethylamino-N-[2-(2-phenyl-4-trifluoromethyl-1H-imidazo[4,5-c]quinolin-1-yl)-ethyl]acetamide fumarate] displayed a melting point of 207.5 to 208 °C.

In the case of `NCCn1c(-c2ccccc2)nc2c(C(F)(F)F)nc3ccccc3c21` [Example 108, 1-(2-Aminoethyl)-2-phenyl-4-trifluoromethyl-1H-imidazo[4,5-c]quinoline], the melting point was 174.5 to 175.5 °C.

`FC(F)(F)c1nc2cc(Cl)ccc2c2c1nc(-c1ncc[nH]1)n2CCC1CCNCC1` (as salt: trifluoroacetate) [Example 75, 7-Chloro-2-(2-1H-imidazolyl)-1-[2-(4-piperidyl)ethyl]-4-trifluoromethyl-1H-imidazo[4,5-c]quinoline]: the melting point was 290 to 295 °C (dec.).

`c1ccc(-c2nc3c(-c4cccs4)nc4ccccc4c3n2CCC2CCNCC2)cc1` (as salt: salt) [Example 115, 2-Phenyl-1-[2-(4-piperidyl)ethyl]-4-(2-thienyl)-1H-imidazo[4,5-c]quinoline] gave a melting point of 210 to 212 °C.

For `Fc1ccc2c(c1)nc(C(F)(F)F)c1nc(-c3ncc[nH]3)n(CCC3CCNCC3)c12` (as salt: trifluoroacetate) (hydrate or solvate) [Example 83, 7-Fluoro-2-(2-1H-imidazolyl)-1-[2-(4-piperidyl)ethyl]-4-trifluoromethyl-1H-imidazo[4,5-c]quinoline], the melting point is 249 to 250 °C (dec.).

Take `NCCn1c(-c2ccc[nH]2)nc2c(C(F)(F)F)nc3ccccc3c21` [Example 109, 1-(2-Aminoethyl)-2-(2-pyrrolyl)-4-trifluoromethyl-1H-imidazo[4,5-c]quinoline]: the melting point was in the range of 195.5 to 196.5 °C.

In the case of `FC(F)(F)c1nc2cc(Cl)ccc2c2c1nc(-c1ccco1)n2CCC1CCNCC1` (as salt: trifluoroacetate), the melting point is 219 to 221 °C (dec.).

Compound `CNCC(=O)NCCn1c(-c2ccccc2)nc2c(C(F)(F)F)nc3ccccc3c21` [Example 127, 2-Methylamino-N-[2-(2-phenyl-4-trifluoromethyl-1H-imidazo[4,5-c]quinolin-1-yl)-ethyl]acetamide] returned a melting point of 208 to 209 °C.

As for `Fc1ccc2c(c1)nc(C(F)(F)F)c1nc(-c3ccccc3)n(CCC3CCNCC3)c12` (as salt: trifluoroacetate) [Example 80, 7-Fluoro-2-phenyl-1-[2-(4-piperidyl)ethyl]-4-trifluoromethyl-1H-imidazo[4,5-c]-quinoline], the melting point is 240 to 242 °C (dec.).

On to `Fc1ccc2c(c1)nc(C(F)(F)F)c1nc(-c3nccs3)n(CCC3CCNCC3)c12` (as salt: trifluoroacetate) [Example 82, 7-Fluoro-1-[2-(4-piperidyl)ethyl]-2-(2-thiazolyl)-4-trifluoromethyl-1H-imidazo-[4,5-c]quinoline], for which the melting point was 236 to 237 °C (dec.).

As for `Cc1ccc2c(c1)nc(C(F)(F)F)c1nc(-c3cccs3)n(CCC3CCNCC3)c12` (as salt: trifluoroacetate) (hydrate or solvate) [Example 91, 7-Methyl-1-[2-(4-piperidyl)ethyl]-2-(2-thienyl)-4-trifluoromethyl-1H-imidazo-[4,5-c]quinoline], the melting point was 236 to 238 °C (dec.).

As for `Fc1ccc2c(c1)nc(C(F)(F)F)c1nc(-c3ccc[nH]3)n(CCC3CCNCC3)c12` (as salt: trifluoroacetate) (hydrate or solvate) [Example 81, 7-Fluoro-1-[2-(4-piperidyl)ethyl]-2-(2-pyrrolyl)-4-trifluoromethyl-1H-imidazo-[4,5-c]quinoline], the melting point is 252 to 254 °C (dec.).

`FC(F)(F)c1nc2ccccc2c2c1nc(-c1ccc[nH]1)n2CCC1CNCCO1` (centres unmarked) (as salt: trifluoroacetate) [Example 102, 1-[2-(2-Morpholinyl)ethyl]-2-(2-pyrrolyl)-4-trifluoromethyl-1H-imidazo[4,5-c]-quinoline]: the melting point is 254 to 258 °C (dec.).

Consider `c1ccc(-c2nc3c(C4CC4)nc4ccccc4c3n2CCC2CCNCC2)cc1` (as salt: fumarate) (hydrate or solvate) [Example 110, 4-Cyclopropyl-2-phenyl-1-[2-(4-piperidyl)ethyl]-1H-imidazo[4,5-c]quinoline], for which the melting point was 142.5 to 147 °C (dec.).

The record behind these values is patent US20040054182A1, “1h-imidazopyridine derivatives” (priority 2000, published 2004).
